Test results from patent publication US6664231B1, “Anti-fungal peptides” (priority 1993, dated 2003).
Like-named read-outs stand apart in the source and are kept apart here. Square brackets hold non-standard residues; d marks the D form. Ends that are not written are not given here. Peptide text beside a SMILES is read from it. * marks the point of attachment. Phe(4-NH2) = Nc1ccc(C[C@H](N)C(=O)O)cc1; pGlu = O=C1CC[C@@H](C(=O)O)N1; Octanoyl = CCCCCCCC(=O)*; Dab = NCC[C@H](N)C(=O)O

Columns and labels:
[1] = tested on: C. albicans (CA-1, Strain SLU-1); assay: Radial diffusion assay; assay type: cell-based, Candida albicans; settings: pmoles of peptide added to well to achieve a 30 mm^2 zone, PROBIT analysis, crude or purified (P′) peptide
Summary of the method: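 Yeast at 1×10^6 CFU/mL in agarose underlayer (3% Sabouraud, 10 mM sodium phosphate pH 7.4); 2-fold peptide dilutions in D-PBS from ~1 mg/mL loaded into wells, 3 h at 37° C, then nutrient overlayer overnight. Value: pmol/well giving 30 mm^2 net clear zone, by PROBIT regression.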

in vitro = in vitro ADME, rat or human serum; settings: serum, half-life of peptide in serum as detected by HPLC analysis; read-out: HPLC Peptide in Serum t ½ (converted)
Method: (§1) For these serum stability experiments, peptides were prepared by solid phase peptide sythesis and purified to 94% or greater purity as described in Example 1. Blood was collected from metaphane anesthesized rats by aortic bleed into Vacutainer™ tubes and allowed to clot at room temperature for approximately 30 minutes, then centrifuged at 3000 rpm (about 1000×g) for 10 minutes at room temperature and the serum aspirated. In addition, frozen human serum (North American Biologics, Inc., Miami, Fla., cat. no. 2140, lot no. 94115) was thawed at room temperature and filtered through a 0.45 μm membrane before use.
(§2) A 1 mg/mL solution of an exemplary XMP peptide to be tested was added to an equal volume of either rat or human serum described above and maintained at 37° C. At 0, 1, 2, and 4 hours, 100 μL were removed and processed by solid phase extraction for HPLC analysis as follows. Serum samples were prepared for HPLC using C-18 Sep-Pak cartridges (1 mL cartridge with 100 mg of sorbent, Waters Corp., Milford, Mass.). One hundred μL of serum sample were added to an equal volume of 1% TFA and mixed for 30 seconds on a Vortex mixer. The sample was then applied to a C-18 Sep-Pak cartridge that had been conditioned by washing with 1 mL of methanol followed by 1 mL Milli-Q water. Weakly reed components were eluted by washing with 1 mL of 0. 1% TFA. The bound peptide was eluted with two volumes of 250 μL 80% acetonitrile/0.065% TFA.
The material eluted from the Sep-Pak cartridge was analyzed on a Michrom Ultaafast Microprotein Analyzer equipped with a 150 mm×1 mm, 5μ particle, 300 Å pore C-8 Zorbax column. The column oven was set to 40° C., the flow rate was 100 μL/minute, and injection volumes were typically 5-10 μL. HPLC was performed using 5% acetonitrile/0.1% TFA in water as mobile phase A, and 80% acetonitrile/0.065% TFA as mobile phase B. The eluate was monitored spectiophotometrically at 214 nm. Peptide standards were dissolved in mobile phase A at 0. 1 mg/mL. The gradient was 25-35% B/10 minutes followed by a 5 minute wash step of 100% B and reequilibration at 25% B for 10 minutes.

[2] = Serum stability, anti-fungal activity after serum incubation by radial diffusion bioassay; assay type: in vitro ADME, rat or human serum; settings: Activity in Serum t ½ (hr.)
Method: as §1, §2
The peptides identified and purified after serum incubation as described above were subjected to N-terminal peptide sequencing performed on an Applied Biosystems Model 477A/120A sequencer and to electrospray ionization mass spectrometry (ESI/MS) performed using a VG Biotech Bio-Q Mass Spectrometer. In addition, the peptides identified and purified after serum incubation as described above were also tested for their anti-fungal activity in a radial diffusion bioassay with Candida albicans SLU-1 strain as described in Example 2.

[3] = tested on: mouse RAW 264.7 cells incubated with E. coli O113 LPS; settings: RAW 264.7 cells with E. coli O113 LPS; concentration reversing LPS growth inhibition by 50%
Method: (§3) An in vitro LPS neutralization screening assay for evaluation of Domain III derived peptides was developed (as described in co-owned and co-pending U.S. patent application Ser. No. 08/306,473) which provides both a measure of efficacy of each peptide (EC50) and of the toxicity/growth inhibition of each peptide (IC50).
(§4) The cells were counted and their concentration adjusted to 2×10^5 cells/mL and 100 μL aliquots were added to each well of a 96-well microtitre plate. […] This incubation was performed in the absence or presence of peptides in varying concentrations between 25 ng/mL and 50 μg/mL. […] Cell proliferation was quantitatively measured by the addition of 1 μCi/well [^3H]-thymidine 5 hours after the time of initiation of the assay. After the 15-hour incubation, labeled cells were harvested onto glass fiber filters with a cell harvester (Inotech Biosystems, INB-384, Sample Processing and Filter Counting System, Lansing, Mich.).

mouse RAW 264.7 cells = tested on: mouse RAW 264.7 cells
Method: as §3, §4

[4] = RAW 264.7 cell growth inhibited by 50%

Row | Molecule | C. albicans pmol/30 mm^2 zone [1] | half-life at 0.5 mg/mL [2] | In Vitro LPS Neutralization EC50 [3] | IC50 (toxicity/growth inhibition of peptide) (mouse RAW 264.7 cells; [4]) | other results
1 | H-KKPWAIQLKK-NH2 [XMP.379] | 547 pmol/30 mm^2 zone | 0.3 h | – | – | half-life at 0.5 mg/mL (in vitro): 0.8 h
2 | H-KKWLIQLFHKP-NH2 [XMP.358] | 550 pmol/30 mm^2 zone | 1.6 h | – | – | –
3 | CC[C@H](C)[C@H](NC(=O)[C@H](CC(C)C)NC(=O)[C@H](Cc1c[nH]c2ccccc12)NC(=O)[C@H](CCCCN)NC(C)=O)C(=O)N[C@@H](CCN)C(=O)N[C@@H](CC(C)C)C(=O)N[C@@H](Cc1ccccc1)C(=O)N[C@@H](Cc1c[nH]cn1)C(=O)N[C@@H](CCCCN)C(=O)N[C@@H](CCCCN)C(N)=O [XMP.372] (Ac-KWLI[Dab]LFHKK-NH2) | 328 pmol/30 mm^2 zone | 1.4 h | – | – | half-life at 0.5 mg/mL (in vitro): 6.6 h
4 | H-KKWLIQLFKK-NH2 [XMP.351] | 385 pmol/30 mm^2 zone | 0.4 h | – | – | –
5 | H-KWLIQLFHKP-NH2 [XMP.357] | 204 pmol/30 mm^2 zone | 0.8 h | – | – | –
6 | CCCCCCCC(=O)N[C@@H](CCCCN)C(=O)N[C@@H](CCCCN)C(=O)N[C@@H](Cc1c[nH]c2ccccc12)C(=O)N[C@@H](C)C(=O)N[C@H](C(=O)N[C@@H](CCC(N)=O)C(=O)N[C@@H](CC(C)C)C(=O)N[C@@H](CCCCN)C(=O)N[C@@H](CCCCN)C(N)=O)[C@@H](C)CC [XMP.410] (Octanoyl-KKWAIQLKK-NH2) | 599 pmol/30 mm^2 zone | 2.9 h | >25 µg/mL | NA (NA for IC50 means no evidence of decreased RAW cell growth at up to 50 μg/ml) | –
7 | Ac-PWLIQLFHKK-NH2 [XMP.356] | 550 pmol/30 mm^2 zone | 0.9 h | – | – | –
8 | H-KKLLLLLKK-NH2 [XMP.385] | 127 pmol/30 mm^2 zone | 2.7 h | – | – | –
9 | H-KKKWLIQLKK-NH2 [XMP.348] | 284 pmol/30 mm^2 zone | 5.5 h | – | – | –
10 | CC[C@H](C)[C@H](NC(=O)[C@H](CC(C)C)NC(=O)[C@H](Cc1ccc(N)cc1)NC(=O)CNC(=O)[C@@H](NC(=O)[C@H](CCCCN)NC(=O)[C@H](CO)NC(=O)[C@@H](N)CCCCN)C(C)C)C(=O)N[C@@H](CCC(N)=O)C(=O)N[C@@H](CC(C)C)C(=O)N[C@@H](Cc1ccccc1)C(=O)N[C@@H](Cc1c[nH]cn1)C(=O)N[C@@H](CCCCN)C(=O)N[C@@H](CCCCN)C(N)=O [XMP.133] (H-KSKVG[Phe(4-NH2)]LIQLFHKK-NH2) | 284 pmol/30 mm^2 zone | 14 h | – | – | –
11 | CC[C@H](C)[C@H](NC(=O)[C@H](CC(C)C)NC(=O)[C@H](Cc1c[nH]c2ccccc12)NC(=O)[C@H](CCCN)NC(=O)[C@@H](N)CCCN)C(=O)N[C@@H](CCC(N)=O)C(=O)N[C@@H](CC(C)C)C(=O)N[C@@H](CCCN)C(=O)N[C@@H](CCCN)C(N)=O [XMP.338] | 1,194 pmol/30 mm^2 zone | 4.7 h | – | – | –
12 | H-KKKWAIQLKK-NH2 [XMP.377] | 146 pmol/30 mm^2 zone | 1.8 h | – | – | –
13 | CC[C@H](C)[C@H](NC(=O)[C@H](CC(C)C)NC(=O)[C@H](Cc1c[nH]c2ccccc12)NC(=O)[C@@H](N)CCCCN)C(=O)N[C@@H](CCN)C(=O)N[C@@H](CC(C)C)C(=O)N[C@@H](Cc1ccccc1)C(=O)N[C@@H](Cc1c[nH]cn1)C(=O)N[C@@H](CCCCN)C(=O)N[C@@H](CCCCN)C(N)=O [XMP.371] (H-KWLI[Dab]LFHKK-NH2) | 843 pmol/30 mm^2 zone | 0.9 h | – | – | C. albicans pmol/30 mm^2 zone ([1]; listed as XMP.371P′): 523 pmol/30 mm^2 zone
14 | H-KKLQLLLKK-NH2 [XMP.381] | 391 pmol/30 mm^2 zone | 0.8 h | – | – | –
15 | CCCCCCCCCCCC(=O)N[C@H](CCCCN)C(=O)N[C@H](Cc1c[nH]c2ccccc12)C(=O)N[C@H](CC(C)C)C(=O)N[C@@H](C(=O)N[C@H](CCC(N)=O)C(=O)N[C@H](CC(C)C)C(=O)N[C@H](Cc1ccccc1)C(=O)N[C@H](Cc1c[nH]cn1)C(=O)N[C@H](CCCCN)C(=O)N[C@H](CCCCN)C(N)=O)[C@H](C)CC [XMP.415] | – | – | 1.61 ± 0.03 µg/mL | – | IC50 (toxicity/growth inhibition of peptide) (mouse RAW 264.7 cells): 6.80 ± 0.14 µg/mL
16 | H-KKLLQLLKK-NH2 [XMP.382P] | – | – | NA (NA for EC50 means no evidence neutralization of LPS at up to 50 μg/ml) | NA (NA for IC50 means no evidence of decreased RAW cell growth at up to 50 μg/ml) | –
17 | KKPWAIQLKK-NH2 (C-terminus assumed) [XMP.379P] | – | – | NA (NA for EC50 means no evidence neutralization of LPS at up to 50 μg/ml) | NA (NA for IC50 means no evidence of decreased RAW cell growth at up to 50 μg/ml) | –
18 | XMP.341P ([pGlu][pGlu]WLIQL[pGlu][pGlu]; not fully specified) | – | – | >50 µg⁻¹ mL⁻¹ | NA/NA (NA for IC50 means no evidence of decreased RAW cell growth at up to 50 μg/ml) | –
19 | KKWAIQLKK-NH2 (C-terminus assumed) [XMP.344P] | – | – | >25 µg/mL | NA (NA for IC50 means no evidence of decreased RAW cell growth at up to 50 μg/ml) | –
20 | CC[C@H](C)[C@H](NC(=O)[C@H](CC(C)C)NC(=O)[C@H](Cc1c[nH]c2ccccc12)NC(=O)[C@H](CCCCN)NC(=O)[C@H]1CCCN1)C(=O)N[C@@H](CCC(N)=O)C(=O)N[C@@H](CC(C)C)C(=O)N[C@@H](CCCCN)C(=O)N[C@@H](CCCCN)C(N)=O [XMP.334P] | – | – | NA (NA for EC50 means no evidence neutralization of LPS at up to 50 μg/ml) | NA (NA for IC50 means no evidence of decreased RAW cell growth at up to 50 μg/ml) | –
21 | CC[C@@H](C)[C@@H](NC(=O)[C@@H](CCC(N)=O)NC(=O)[C@@H](CC(C)C)NC(=O)[C@H](N)CCCCN)C(=O)N[C@H](CC(C)C)C(=O)N[C@H](Cc1c[nH]c2ccccc12)C(=O)N[C@H](CCCCN)C(=O)N[C@H](CCCCN)C(N)=O [XMP.374P] | – | – | 13.97 ± 2.02 µg/mL | NA (NA for IC50 means no evidence of decreased RAW cell growth at up to 50 μg/ml) | –
